Results published in patent publication US20130172308A1, “ANTIMICROBIAL AGENTS” (John Grant COLLINS, priority 2011, published 2013).

Experiments:
P. aeruginosa = experiment: Minimum Bactericidal Concentration (MBC) assay (CAMHB); format: cell-based, Pseudomonas aeruginosa; details: Table 4, all ΔΔ- enantiomers
Method: (§1) Further MIC assays and Minimum Bactericidal Concentration (MBC) assays were conducted against Gram-positive and Gram-negative bacterial strains using symmetric and non-symmetric, inert and labile complexes.

S. aureus ATCC 25923 = experiment: MIC determination, broth micro-dilution (CAMHB); format: cell-based, Staphylococcus aureus
Method: (§2) Four strains of bacteria were chosen for the susceptibility tests: S. aureus ATCC 25923; MRSA (a wild clinical strain from the JCU culture collection); E. coli ATCC 25922 and P. aeruginosa ATCC 27853. The bacteria were grown on Mueller Hinton agar (OXOID, cat. No. CM0337) and suspended in growth medium cation-adjusted Mueller Hinton broth (CAMHB, OXOID, cat. No. CM0405). The MIC of each complex was determined in duplicate by standard micro-dilution methodology (British Society for Antimicrobial Chemotherapy Working Party, J. Antimicrob. Chemother., 1991, 27(suppl. D), 22) using gentamicin as the positive control. The ruthenium complexes were dissolved in CAMHB to a stock solution of […] and two-fold diluted in the broth in 96-well plates in a final volume of […] in each well. The same volume […] of bacterial suspension was added in each well making a concentration range of 0.25 mg ml^−1 to 128 mg ml^−1 for each complex. The plates were incubated at 37° C. for 24 h. The results are summarised in Table 1 below, using the following abbreviations: • Rubpm=ΔΔ-[{Ru(phen)2}2(μ-2,2′-bipyrimidine)]Cl4 • Rudppm=ΔΔ-[{Ru(phen)2}2(μ-4,6-bis(2-pyridyl)pyrimidine)]Cl4 • Rubb7trinuclear=Δ*Δ*-[{Ru*(phen)2}(μ-bb7){Ru(phen)}(μ-bb7){Ru*(phen)2}]Cl6 (only the two terminal metal centres are chiral, the two central metal centres are racemic) • Rubb7tetranuclear=Δ*Δ*-[{Ru*(phen)2}(μ-bb7) {Ru(phen)}(μ-bb7){Ru(phen)}(μ-bb7)-{Ru*(phen)2}]Cl8 (only the two terminal metal centres are chiral, the two central metal centres are racemic)
as §1

E. coli = experiment: Minimum Bactericidal Concentration (MBC) assay (CAMHB); format: cell-based, Escherichia coli; details: Table 4, all ΔΔ- enantiomers
Method: as §1

E. coli ATCC 25922 = experiment: MIC determination, broth micro-dilution (CAMHB); format: cell-based, Escherichia coli
Method: as §2, §1

[1] = test system: MRSA (a wild clinical strain from the JCU culture collection); experiment: MIC determination, broth micro-dilution (CAMHB); format: cell-based, methicillin-resistant S. aureus
Method: as §2, §1

MRSA = experiment: Minimum Bactericidal Concentration (MBC) assay (CAMHB); format: cell-based, methicillin-resistant S. aureus; details: Table 4, all ΔΔ- enantiomers
Method: as §1

S. aureus = experiment: as above; format: cell-based, Staphylococcus aureus; details: Table 4, all ΔΔ- enantiomers
Method: as §1

P. aeruginosa ATCC 27853 = experiment: MIC determination, broth micro-dilution (CAMHB); format: cell-based, Pseudomonas aeruginosa
Method: as §2, §1

[2] = format: physicochemical; details: pH 7.4
Method: The primary difference between the members of the Rubbn family of complexes is the number of methylene groups in the flexible linking chain. […] Lipophilicity is a significant factor affecting the biological activity of most therapeutic compounds, as it relates to the capacity of the drug to penetrate through the cell membrane. The standard octanol-water partition coefficient (logP) was determined for the Rubbn series (F. Lombardo, B. Faller, M. Shalaeva, I. Tetko and S. Tilton, Methods and Principles in Medicinal Chemistry, 2008, 37, 407) parent model mononuclear species ([Ru(phen)2(Me2bpy)]^2+) and the trinuclear and tetranuclear complexes.
The partition coefficients (logP) were measured using the shake flask technique: each ruthenium complex (at both 0.05 and 0.1 mM) was dissolved in the water phase (0.2 M Na2HPO4—NaH2PO4 buffer, pH=7.4) and an equivalent volume of n-octanol was added.
The two phases were mutually saturated by shaking overnight at ambient temperature and then were allowed to separate on standing. The concentration of the metal complex in each phase was determined spectrophotometrically at l=450 nm.

S. epidermidis = experiment: Further MIC assays, whole spectrum bacteria (CAMHB); format: cell-based; details: Table 3; Broth: CAMHB
Method: (§3) Further MIC assays were conducted against five different bacteria with Rubbn (n=7, 10, 12, 16), two rigid dinuclear species (bridges bpm and dppm) and Gentamicin—Whole spectrum bacteria MIC test results (Broth: CAMHB).

S. typhimurium = experiment: as above; format: cell-based; details: Table 3; Broth: CAMHB
Method: as §3

E. faecalis = experiment: as above; format: cell-based; parameters: unit not given beside the values; details: Table 3; Broth: CAMHB
Method: as §3

A. baumanii = experiment: as above; format: cell-based; parameters: unit not given here; details: Table 3; Broth: CAMHB
Method: as §3

VRE = experiment: as above; format: cell-based, vancomycin-resistant Enterococcus; details: Table 3; Broth: CAMHB
Method: as §3

[3] = Table 4, CAMHB, all ΔΔ- enantiomers

Compound: Cc1cc[n+]2c(c1)-c1cc(CCCCCCCc3cc[n+]4c(c3)-c3cc(C)cc[n+]3[Ru-4]435([n+]4cccc6ccc7ccc[n+]3c7c64)[n+]3cccc4ccc6ccc[n+]5c6c43)cc[n+]1[Ru-4]213([Cl])[n+]2ccccc2-c2cccc([n+]21)-c1cccc[n+]13 [Ru(μ-bb7)Ru—Cl, [Ru(phen)2(μ-bb7)Ru(terpy)Cl]]
- MBC P. aeruginosa (P. aeruginosa): 32 µg/mL
- MIC S. aureus (S. aureus ATCC 25923; [3]): 8
- MBC E. coli (E. coli): 1 µg/mL
- MIC E. coli (E. coli ATCC 25922; [3]): 1
- MIC MRSA [1, 3]: 8
- MBC MRSA (MRSA): 32 µg/mL
- MBC S. aureus (S. aureus): 16 µg/mL
- MIC P. aeruginosa (P. aeruginosa ATCC 27853; [3]): 16

Compound: Cc1cc[n+]2c(c1)-c1cc(CCCCCCCc3cc[n+]4c(c3)-c3cc(C)cc[n+]3[Ru-4]435([n+]4cccc6ccc7ccc[n+]3c7c64)[n+]3cccc4ccc6ccc[n+]5c6c43)cc[n+]1[Ru-4]213([n+]2cccc4ccc5ccc[n+]1c5c42)[n+]1cccc2ccc4ccc[n+]3c4c21.F[P-](F)(F)(F)(F)F.F[P-](F)(F)(F)(F)F.F[P-](F)(F)(F)(F)F.F[P-](F)(F)(F)(F)F [Rubb7, [{Ru(phen)2}2(μ-bb7)](PF6)4]
- logP [2]: −3.4
- MBC P. aeruginosa (P. aeruginosa): 128 µg/mL
- MIC S. aureus (S. aureus ATCC 25923; [3]): 16
- MBC E. coli (E. coli): 16 µg/mL
- MIC E. coli (E. coli ATCC 25922; [3]): 16
- MIC MRSA [1, 3]: 16
- MBC MRSA (MRSA): 32 µg/mL
- MBC S. aureus (S. aureus): 32 µg/mL
- MIC P. aeruginosa (P. aeruginosa ATCC 27853; [3]): 64

Compound: Cc1cc[n+]2c(c1)-c1cc(CCCCCCCCCCCCc3cc[n+]4c(c3)-c3cc(C)cc[n+]3[Ru-4]435([Cl])[n+]4ccccc4-c4cccc([n+]43)-c3cccc[n+]35)cc[n+]1[Ru-4]213([Cl])[n+]2ccccc2-c2cccc([n+]21)-c1cccc[n+]13.F[P-](F)(F)(F)(F)F.F[P-](F)(F)(F)(F)F [Rubb12-Cl, [{Ru(terpy)(Cl)}2(μ-bb12)](PF6)2]
- MBC P. aeruginosa (P. aeruginosa): 16 µg/mL
- MIC S. aureus (S. aureus ATCC 25923; [3]): 1
- MBC E. coli (E. coli): 2 µg/mL
- MIC E. coli (E. coli ATCC 25922; [3]): 2
- MIC MRSA [1, 3]: 1
- MBC MRSA (MRSA): 1 µg/mL
- MBC S. aureus (S. aureus): 1 µg/mL
- MIC P. aeruginosa (P. aeruginosa ATCC 27853; [3]): 8

Compound: [Cl-].[Cl-].[Cl-].[Cl-].c1cc[n+]2c(c1)-c1cc3[n+](c[n+]1[Ru-4]214([n+]2cccc5ccc6ccc[n+]1c6c52)[n+]1cccc2ccc5ccc[n+]4c5c21)[Ru-4]12([n+]4ccccc4-3)([n+]3cccc4ccc5ccc[n+]1c5c43)[n+]1cccc3ccc4ccc[n+]2c4c31 [Rudppm, ΔΔ-[{Ru(phen)2}2(μ-4,6-bis(2-pyridyl)pyrimidine)]Cl4, reference compound]
- MIC S. epidermidis (S. epidermidis): >128
- MIC S. typhimurium (S. typhimurium): >128
- MIC S. aureus (S. aureus ATCC 25923; Table 1, 37° C., 24 h): >128 µg/mL
- MIC E. faecalis (E. faecalis): >128
- MIC E. coli (E. coli ATCC 25922; Table 1, 37° C., 24 h): >128 µg/mL
- MIC A. baumanii (A. baumanii): >128
- MIC MRSA ([1]; Table 1, 37° C., 24 h): >128 µg/mL
- MIC VRE (VRE): >128
- MIC P. aeruginosa (P. aeruginosa ATCC 27853; Table 1, 37° C., 24 h): >128 µg/mL

Compound: [Ru(phen)2(μ-bb12)Ru(terpy)Cl](PF6)3 [Ru(μ-bb12)Ru—Cl]
- MBC P. aeruginosa (P. aeruginosa): 32 µg/mL
- MIC S. aureus (S. aureus ATCC 25923; [3]): 1
- MBC E. coli (E. coli): 1 µg/mL
- MIC E. coli (E. coli ATCC 25922; [3]): 1
- MIC MRSA [1, 3]: 1
- MBC MRSA (MRSA): 2 µg/mL
- MBC S. aureus (S. aureus): 1 µg/mL
- MIC P. aeruginosa (P. aeruginosa ATCC 27853; [3]): 16

Compound: [Ru(phen)2(μ-bb16)Ru(terpy)Cl](PF6)3 [Ru(μ-bb16)Ru—Cl]
- MBC P. aeruginosa (P. aeruginosa): 64 µg/mL
- MIC S. aureus (S. aureus ATCC 25923; [3]): 2
- MBC E. coli (E. coli): 4 µg/mL
- MIC E. coli (E. coli ATCC 25922; [3]): 4
- MIC MRSA [1, 3]: 2
- MBC MRSA (MRSA): 2 µg/mL
- MBC S. aureus (S. aureus): 2 µg/mL
- MIC P. aeruginosa (P. aeruginosa ATCC 27853; [3]): 64

Compound: [{Ru(terpy)(Cl)}2(μ-bb14)](PF6)2 [Rubb14-Cl]
- MBC P. aeruginosa (P. aeruginosa): 64 µg/mL
- MIC S. aureus (S. aureus ATCC 25923; [3]): 1
- MBC E. coli (E. coli): 2 µg/mL
- MIC E. coli (E. coli ATCC 25922; [3]): 2
- MIC MRSA [1, 3]: 1
- MBC MRSA (MRSA): 2 µg/mL
- MBC S. aureus (S. aureus): 1 µg/mL
- MIC P. aeruginosa (P. aeruginosa ATCC 27853; [3]): 32

Compound: [{Ru(terpy)Cl}2(μ-bb7)] [Rubb7-Cl]
- MBC P. aeruginosa (P. aeruginosa): 64 µg/mL
- MIC S. aureus (S. aureus ATCC 25923; [3]): 8
- MBC E. coli (E. coli): 8 µg/mL
- MIC E. coli (E. coli ATCC 25922; [3]): 8
- MIC MRSA [1, 3]: 8
- MBC MRSA (MRSA): 16 µg/mL
- MBC S. aureus (S. aureus): 8 µg/mL
- MIC P. aeruginosa (P. aeruginosa ATCC 27853; [3]): 32

Compound: gentamicin [reference compound]
- MIC S. epidermidis (S. epidermidis): <0.125
- MIC S. typhimurium (S. typhimurium): 2
- MIC S. aureus (S. aureus ATCC 25923; Table 1, 37° C., 24 h): ≦0.0625 μg.ml^−1
- MIC E. faecalis (E. faecalis): 32
- MIC E. coli (E. coli ATCC 25922; Table 1, 37° C., 24 h): 0.5 µg/mL
- MIC A. baumanii (A. baumanii): 16
- MIC MRSA ([1]; Table 1, 37° C., 24 h): 16 µg/mL
- MIC VRE (VRE): 16
- MIC P. aeruginosa (P. aeruginosa ATCC 27853; Table 1, 37° C., 24 h): 0.125 µg/mL

Compound: Δ-[Ru(phen)2(Me2bipy)](PF6)2 [[Ru(phen)2(Me2bpy)]^2+, reference compound]
- logP [2]: −2.9
- MIC S. aureus (S. aureus ATCC 25923; Table 1, 37° C., 24 h): 128 µg/mL
- MIC E. coli (E. coli ATCC 25922; Table 1, 37° C., 24 h): >128 µg/mL
- MIC MRSA ([1]; Table 1, 37° C., 24 h): >128 µg/mL
- MIC P. aeruginosa (P. aeruginosa ATCC 27853; Table 1, 37° C., 24 h): >128 µg/mL

Compound: Δ-[Ru(phen)2(bb16)]Cl2 [Rubb16mono]
- logP [2]: +2.1
- MIC S. aureus (S. aureus ATCC 25923; Table 1, 37° C., 24 h): 16 µg/mL
- MIC E. coli (E. coli ATCC 25922; Table 1, 37° C., 24 h): 64 µg/mL
- MIC MRSA ([1]; Table 1, 37° C., 24 h): 16 µg/mL
- MIC P. aeruginosa (P. aeruginosa ATCC 27853; Table 1, 37° C., 24 h): 64 µg/mL

Compound: ΔΔ-[{Ru(phen)2}2(μ-2,2′-bipyrimidine)]Cl4 [Rubpm, reference compound]
- MIC S. epidermidis (S. epidermidis): >128
- MIC S. typhimurium (S. typhimurium): >128
- MIC S. aureus (S. aureus ATCC 25923; Table 1, 37° C., 24 h): >128 µg/mL
- MIC E. faecalis (E. faecalis): >128
- MIC E. coli (E. coli ATCC 25922; Table 1, 37° C., 24 h): >128 µg/mL
- MIC A. baumanii (A. baumanii): >128
- MIC MRSA ([1]; Table 1, 37° C., 24 h): >128 µg/mL
- MIC VRE (VRE): >128
- MIC P. aeruginosa (P. aeruginosa ATCC 27853; Table 1, 37° C., 24 h): >128 µg/mL
